Consider 10 molecules from patent publication US20240124483A1, “Methods for the Treatment of Fibrotic Disease” (SHY Therapeutics, LLC, priority 2021, published 2024).

Assay [1] addresses KRas G12D mutant (Homo sapiens (Human), UniProt P01116, G12D). Put plainly: Ras GTP Binding Domain Inhibition Assay, KRas G12D mutant. The note with it: for inhibition at 20 µM: Table 7; for KRas G12D mutant + SOS: % inh. / KRas G12D mutant: % inh.: 20 uM, Table 8. Put shortly:
(§1)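 Readout is fluorescence of Cy3-GTP or Cy5-GTP (100 nM final, 45 min, room temperature) still bound after washes to His-tagged KRas immobilised on nickel plates. Beforehand, compounds (20 μM final; serial dilutions for IC50) incubated 3 h with protein in 1% DMSO, with or without His-tagged Sos GEF added for the last hour.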

Assay [2] deals with MiaPaca2. The assay is described as follows: MiaPaca2 proliferation. It counts as cell-based. Conditions: Homo sapiens, MIA PaCa-2; for inhibition at 10 µM: read-out: % inh of proliferation in MiaPaca2.
The target of assay [3] is Rho-A (Homo sapiens (Human), UniProt P61586). Put plainly: Ras GTP Binding Domain Inhibition Assay, Rho-A. The note with it: without SOS, read-out: Rho-A: % inh. Put shortly:
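His-tagged GTPase immobilized on nickel-coated plates (10-30 μg/mL, overnight, 4° C), then exposed to compound (20 μM or serial dilution for IC50, 1% DMSO) for 3 h at room temperature, with or without His-tagged Sos (residues 556-1049) in the final hour. Bound Cy3-GTP or Cy5-GTP (100 nM, 45 min) was read by fluorescence after washing.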

Assay [4] has as its system Smad2/3 phosphorylation. The assay is described as follows: Phospho-Smad2/3 Inhibition Assay in Panc-1 (western blot). It counts as cell-based. The note with it: Homo sapiens; 10 μM, 3 hours; PANC-1 stimulated with 10 ng/ml TGF-b1 for 1 hour; read-out: % inh of Smad2/3 phosphorylation in PANC-1. Put shortly: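 Serum-starved cells (0.5% FBS overnight) pretreated 3 h at 37 °C with compound at 10 μM or serial dilutions for IC50, in 0.3% DMSO. TGF-b1 10 ng/ml stimulation: 1 h for Panc-1 (human), 20 min for C2C12 (mouse). Phospho-Smad2 (Ser465/467) and phospho-Smad3 (Ser423/425) measured by western blot of lysates.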
A general note: A western blot detects proteins with antibodies after separation by electrophoresis.

Assay [5] addresses KRas Q61H mutant (Homo sapiens (Human), UniProt P01116, Q61H). The assay is described as follows: Ras GTP Binding Domain Inhibition Assay, KRas Q61H mutant. Conditions: 20 μM. Put shortly:
as §1

Setting [6] is: + SOS, read-out: KRas G12D mutant + SOS: % inh.
The mark [7] stands for this setting: without SOS, read-out: KRas G12D mutant: % inh.
The mark [8] stands for this setting: + SOS, read-out: KRas Q61H mutant + SOS: % inh.
The mark [9] stands for this setting: without SOS, read-out: KRas Q61H mutant: % inh.

Where two headings read alike, the source gives them in different places.

As usually defined, the IC50 is the concentration needed to halve the response being measured. Read a low IC50 as greater potency.

KRas G12D mutant, sequence (P01116 other isoform, or with tags, fused parts or gaps G12D): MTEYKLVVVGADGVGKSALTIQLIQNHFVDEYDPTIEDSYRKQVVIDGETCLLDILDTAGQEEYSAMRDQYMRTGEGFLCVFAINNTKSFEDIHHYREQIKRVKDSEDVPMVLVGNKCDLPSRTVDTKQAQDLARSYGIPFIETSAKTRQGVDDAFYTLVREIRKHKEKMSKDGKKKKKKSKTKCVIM
KRas Q61H mutant, sequence (P01116 other isoform, or with tags, fused parts or gaps Q61H): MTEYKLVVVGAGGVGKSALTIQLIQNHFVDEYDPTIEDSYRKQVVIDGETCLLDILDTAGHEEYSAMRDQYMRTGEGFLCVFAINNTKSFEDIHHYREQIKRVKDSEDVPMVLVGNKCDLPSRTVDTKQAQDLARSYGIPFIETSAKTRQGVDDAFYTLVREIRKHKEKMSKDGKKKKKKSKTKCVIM
Rho-A, sequence (P61586 whole entry, species assumed, the tested form may be a part): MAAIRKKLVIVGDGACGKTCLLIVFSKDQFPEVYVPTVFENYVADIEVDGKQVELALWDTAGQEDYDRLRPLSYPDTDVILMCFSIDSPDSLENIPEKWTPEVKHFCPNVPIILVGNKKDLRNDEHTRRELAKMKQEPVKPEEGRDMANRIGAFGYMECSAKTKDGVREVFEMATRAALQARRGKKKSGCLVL

As for `COc1cccc(-c2sc3nc(-c4nccn4C)nc(N[C@H]4C[C@H](OC)C4)c3c2C)c1F` [Compound 42, 6-(2-Fluoro-3-methoxyphenyl)-N-((1r,3r)-3-methoxycyclobutyl)-5-methyl-2-(1-methyl-1H-imidazol-2-yl)thieno[2,3-d]pyrimidin-4-amine], the inhibition at 20 µM in assay [1] (setting [6]) was 76 to 100%; in assay [1] (setting [7]), 26 to 45%; in assay [3] it was 46 to 75%; in assay [5] (setting [8]) it was 76 to 100%; in assay [5] (setting [9]), 46 to 75%. Further, the “KRas G12D mutant + SOS: % inh.” value in assay [1] (+ SOS) is “D (D = 76-100% inhibition)”. Further, in assay [1] (without SOS), the “KRas G12D mutant: % inh.” value is listed as “B (B = 26-45% inhibition)”. The molecule further came in with a 50% inhibitory concentration (IC50) in assay [2] of 5 to 10 µM. Besides, the inhibition at 10 µM fell in the range of 76 to 100% in assay [2] and 1 to 25% in assay [4].

Turning to `COCCCn1c(-c2nccn2C)nc2sc(-c3ccn(C(C)C)n3)c(-c3ccccc3)c2c1=O` [Compound 36, 6-(1-Isopropyl-1H-pyrazol-3-yl)-3-(3-methoxypropyl)-2-(1-methyl-1H-imidazol-2-yl)-5-phenylthieno[2,3-d]pyrimidin-4(3H)-one], the inhibition at 20 µM in assay [1] (setting [6]), in assay [1] (setting [7]), in assay [3], in assay [5] (setting [8]) and in assay [5] (setting [9]) was 0% each time. For the same molecule, the “KRas G12D mutant + SOS: % inh.” value in assay [1] (+ SOS) was 0 (0 = 0% inhibition). Besides, the “KRas G12D mutant: % inh.” value in assay [1] (without SOS) is 0 (0 = 0% inhibition). The concentration for half-maximal inhibition (IC50) in assay [2] lay in the range of 5 to 10 µM. Further, the inhibition at 10 µM in assay [2] is 76 to 100%; in assay [4] it was 0%.

`COc1cc(Nc2nc(-c3nccn3C)nc3sc(-c4ccn(C(C)C)n4)c(C)c23)ncn1` [Compound 19, 6-(1-Isopropyl-1H-pyrazol-3-yl)-N-(6-methoxypyrimidin-4-yl)-5-methyl-2-(1-methyl-1H-imidazol-2-yl)thieno[2,3-d]pyrimidin-4-amine]: the inhibition at 20 µM in assay [1] (setting [6]) is 46 to 75%; in assay [1] (setting [7]) it was 26 to 45%; in assay [3] it was 76 to 100%; in assay [5] (setting [8]) it was 76 to 100%; in assay [5] (setting [9]), 76 to 100%. Besides, in assay [1] (+ SOS), the “KRas G12D mutant + SOS: % inh.” value was “C (C = 46-75% inhibition)”. Also, the “KRas G12D mutant: % inh.” value in assay [1] (without SOS) is given as “B (B = 26-45% inhibition)”. This molecule registered a 50% inhibitory concentration (IC50) in assay [2] of 1 to 4.99 µM. Besides, the inhibition at 10 µM in assay [2] and in assay [4] was 76 to 100% throughout.

For `COc1cccc(-c2sc3nc(-c4nccn4C)nc(N[C@@H]4CC[C@@H](OC)C4)c3c2-c2ccccc2)c1F` (racemic) [Compound 41, 6-(2-Fluoro-3-methoxyphenyl)-N-((1R,3R)-3-methoxycyclopentyl)-2-(1-methyl-1H-imidazol-2-yl)-5-phenylthieno[2,3-d]pyrimidin-4-amine], the inhibition at 20 µM was 46 to 75% in assay [1] (setting [6]); 1 to 25% in assay [1] (setting [7]); 0% in assay [3]; 76 to 100% in assay [5] (setting [8]); 26 to 45% in assay [5] (setting [9]). Further, the “KRas G12D mutant + SOS: % inh.” value in assay [1] (+ SOS) is “C (C = 46-75% inhibition)”. For the same molecule, the “KRas G12D mutant: % inh.” value in assay [1] (without SOS) is given as “A (A = 1-25% inhibition)”. In addition, in assay [2], the 50% inhibitory concentration (IC50) was in the range of 1 to 4.99 µM. Moreover, the inhibition at 10 µM in assay [2] and in assay [4] was 76 to 100% throughout.

Take `CO[C@H]1CNC[C@@H](Nc2nc(-c3nccn3C)nc3sc(-c4ccn(C(C)C)n4)cc23)C1` [Compound 28, 6-(1-Isopropyl-1H-pyrazol-3-yl)-N-((3S,5R)-5-methoxypiperidin-3-yl)-2-(1-methyl-1H-imidazol-2-yl)thieno[2,3-d]pyrimidin-4-amine]: the inhibition at 20 µM in assay [1] (setting [6]) lay in the range of 76 to 100%; in assay [1] (setting [7]), 46 to 75%; in assay [3], 46 to 75%; in assay [5] (setting [8]), 76 to 100%; in assay [5] (setting [9]), 46 to 75%. For the same molecule, the “KRas G12D mutant + SOS: % inh.” value in assay [1] (+ SOS) was “D (D = 76-100% inhibition)”. Besides, the “KRas G12D mutant: % inh.” value in assay [1] (without SOS) was “C (C = 46-75% inhibition)”. The IC50 in assay [2] fell in the range of 5 to 10 µM. Besides, the inhibition at 10 µM in assay [2] is 76 to 100%; in assay [4], 0%.

As to `CO[C@H]1C[C@H](CNc2nc(-c3nccn3C)nc3sc(-c4ccn(C(C)C)n4)c(C)c23)C1` [Compound 16, 6-(1-Isopropyl-1H-pyrazol-3-yl)-N-(((1r,3r)-3-methoxycyclobutyl)methyl)-5-methyl-2-(1-methyl-1H-imidazol-2-yl)thieno[2,3-d]pyrimidin-4-amine], the inhibition at 20 µM in assay [1] (setting [6]) was in the range of 46 to 75%; in assay [1] (setting [7]), 26 to 45%; in assay [3], 46 to 75%; in assay [5] (setting [8]), 46 to 75%; in assay [5] (setting [9]), 46 to 75%. Also, the “KRas G12D mutant + SOS: % inh.” value in assay [1] (+ SOS) was “C (C = 46-75% inhibition)”. In addition, the “KRas G12D mutant: % inh.” value in assay [1] (without SOS) was “B (B = 26-45% inhibition)”. Moreover, the IC50 in assay [2] is below 1 µM. The inhibition at 10 µM in assay [2] was 76 to 100%; in assay [4] it was 1 to 25%.

On to `COCCn1c(-c2nccn2C)nc2sc(-c3ccn(C(C)C)n3)c(C)c2c1=O` [Compound 29, 6-(1-Isopropyl-1H-pyrazol-3-yl)-3-(2-methoxyethyl)-5-methyl-2-(1-methyl-1H-imidazol-2-yl)thieno[2,3-d]pyrimidin-4(3H)-one], for which the inhibition at 20 µM was 46 to 75% in assay [1] (setting [6]); 46 to 75% in assay [1] (setting [7]); 76 to 100% in assay [3]; 76 to 100% in assay [5] (setting [8]); 46 to 75% in assay [5] (setting [9]). In addition, the “KRas G12D mutant + SOS: % inh.” value in assay [1] (+ SOS) is reported as “C (C = 46-75% inhibition)”. Besides, in assay [1] (without SOS), the “KRas G12D mutant: % inh.” value is recorded as “C (C = 46-75% inhibition)”. Besides, the IC50 in assay [2] is 5 to 10 µM. In addition, the inhibition at 10 µM was 46 to 75% in assay [2] and 0% in assay [4].

`COc1nccc(-c2sc3nc(-c4nccn4C)nc(N[C@H]4C[C@H](OC)C4)c3c2-c2ccccc2)c1F` [Compound 45, 6-(3-Fluoro-2-methoxypyridin-4-yl)-N-((1r,3r)-3-methoxycyclobutyl)-2-(1-methyl-1H-imidazol-2-yl)-5-phenylthieno[2,3-d]pyrimidin-4-amine]: the inhibition at 20 µM in assay [1] (setting [6]) fell in the range of 46 to 75%; in assay [1] (setting [7]) it was 46 to 75%; in assay [3], 46 to 75%; in assay [5] (setting [8]), 76 to 100%; in assay [5] (setting [9]) it was 46 to 75%. The “KRas G12D mutant + SOS: % inh.” value in assay [1] (+ SOS) is recorded as “C (C = 46-75% inhibition)”. Further, the “KRas G12D mutant: % inh.” value in assay [1] (without SOS) is on record as “C (C = 46-75% inhibition)”. In assay [2], this molecule registered a half-maximal inhibitory concentration (IC50) of 1 to 4.99 µM. The inhibition at 10 µM in assay [2] and in assay [4] was 76 to 100% throughout.

Turning to `Cc1c(-c2ccn(C(C)C)n2)sc2nc(-c3nccn3C)nc(NCC3COCCN3C)c12` (racemic) [Compound 24, rac-6-(1-Isopropyl-1H-pyrazol-3-yl)-5-methyl-2-(1-methyl-1H-imidazol-2-yl)-N-((4-methylmorpholin-3-yl)methyl)thieno[2,3-d]pyrimidin-4-amine], the inhibition at 20 µM in assay [1] (setting [6]) lay within 76 to 100%; in assay [1] (setting [7]), 46 to 75%; in assay [3] it was 46 to 75%; in assay [5] (setting [8]), 76 to 100%; in assay [5] (setting [9]), 46 to 75%. Also, in assay [1] (+ SOS), the “KRas G12D mutant + SOS: % inh.” value is listed as “D (D = 76-100% inhibition)”. The “KRas G12D mutant: % inh.” value in assay [1] (without SOS) is “C (C = 46-75% inhibition)”. Also, the half-inhibitory concentration (IC50) in assay [2] was 5 to 10 µM. Also, the inhibition at 10 µM is 76 to 100% in assay [2] and 0% in assay [4].

For the molecule `COCCCCOc1nc(-c2nccn2C)nc2sc(-c3ccn(C(C)C)n3)c(C)c12` [Compound 34, 6-(1-Isopropyl-1H-pyrazol-3-yl)-4-(4-methoxybutoxy)-5-methyl-2-(1-methyl-1H-imidazol-2-yl)thieno[2,3-d]pyrimidine], the inhibition at 20 µM is 0% in assay [1] (setting [6]); 1 to 25% in assay [1] (setting [7]); 0% in assay [3]; 1 to 25% in assay [5] (setting [8]); 0% in assay [5] (setting [9]). In assay [1] (+ SOS), the “KRas G12D mutant + SOS: % inh.” value is recorded as 0 (0 = 0% inhibition). Moreover, the “KRas G12D mutant: % inh.” value in assay [1] (without SOS) is given as “A (A = 1-25% inhibition)”. Further, the IC50 in assay [2] is above 10 µM. Besides, the inhibition at 10 µM was 26 to 45% in assay [2] and 0% in assay [4].
